Common to all, as to type: in vivo
Assay [1] concerns soybean plants (shoot apical meristem). Put plainly: Field trial 1: soybean seed production after spraying the shoot apical meristem. Here is the method:
FIG. 1 provides an example of an increase in soybean seed production following the removal of apical dominance by spraying with a double pass of 0.1M methyl decanoate (199.0±14.14 seeds/plant on average) at the V5 stage of growth compared to untreated controls (160.47±5.33 seeds/plant on average) conducted in Pleasant Plains, Illinois. […] Asterisks show significance differences at the 0.05 level.
Field trial 1 was conducted in Pleasant Plants, Illinois. A single soybean variety was used in the field trial. The soybean variety was planted in 20 plots. Each plot was composed of 8 rows of plants spaced 30 inches apart and was 50 feet long by 20 feet wide. Soybeans were treated with 0.10 M methyl decanoate spray. An undiluted surfactant, polyoxyethylene sorbitan monolaurate, was added in equal weight to the fatty ester. Additional spray was applied by completion of a second pass with 0.10 M methyl decanoate spray. The second pass was completed immediately after the initial treatment of each row to saturate the apical meristem.
Soybean plants were sprayed using an individual chemical spray backpack. The plants were sprayed with approximately 2.5 gallons/1000 sq feet of 0.1 M (or an equivalent of 110 gallons/acre) with the double pass. Soybean plants were sprayed with methyl decanoate at the V5 growth stage.
The overall experiment was designed to distribute untreated control plots and mechanically clipped plants at the same growth stage with the methyl decanoate treated variety across the test field.

The test system is the same in assay [2]. As to the kind of experiment: Field trial 2: soybean seed production after spraying the shoot apical meristem. Here is the method: FIG. 2 provides an example of an increase in soybean seed production following the removal of apical dominance by spraying with a double pass of 0.1M methyl decanoate (220.6±21.96 seeds/plant on average) at the V3 stage of growth compared to untreated controls (147.88±13.59 seeds/plant on average) conducted in Mt. Pulaski, Illinois. […] Asterisks show significance differences at the 0.05 level, + indicates a marginally significant difference at <0.10.
Field trial 2 was conducted at GroAlliance in Mt Pulaski, Illinois and planted with a soybean variety. Soybean plants were treated with a spray containing 0.10 M methyl decanoate and polyethylene sorbitan monolaurate. Soybean plants were sprayed using individual chemical backpack spray units. The soybean plants were treated with methyl decanoate at or between the growth stages of V3 and V4.
The test field was subdivided into plots with the dimensions of five rows by 10 feet. Two plots were designated for each soybean variety for spray treatment and distributed geographically across the full test field. Untreated control plots and mechanically clipped plants at the same growth stage were adjacent to the test plot areas.

For assay [3] the test system is unchanged. Put plainly: Field trial 3: soybean seed production after spraying the shoot apical meristem. Here is the method: FIG. 3 provides an example of an increase in soybean seed production following the removal of apical dominance by spraying with a double pass of 0.1M methyl decanoate (97.85±4.43 seeds/plant on average) at the V4-V6 stage of growth compared to untreated controls (79.81±3.09 seeds/plant on average) conducted in Lowell, Indiana. […] Asterisks show significance differences at the 0.05 level.
Field trial 3 was conducted in Lowell, Indiana and a single soybean variety was tested. Soybean plants were treated with a double pass of methyl decanoate at a concentration of 0.10 M. The methyl decanoate spray contained an undiluted surfactant, polyoxyethylene sorbitan monolaurate, that was added in equal weight to the fatty ester.
Soybean plants were treated the methyl decanoate spray using a backpack spray unit. Soybeans were sprayed in between growth stages V4-V6. The test plots were 21 rows by 50 feet.

For `CCCCCCCCCC(=O)OC` [methyl decanoate], the “seed yield compared to untreated control plants (in words)” value in assay [1] (0.10 M spray with polyoxyethylene sorbitan monolaurate, V5 growth stage) is on record as “increased seed yield”; in assay [2] (0.10 M spray with surfactant, at or between V3 and V4), “increased seed yield”; in assay [3] (double pass 0.10 M spray with polyoxyethylene sorbitan monolaurate, V4-V6) it was “increased seed yield”. The “higher seed production than the untreated control” value in assay [1] (double pass of 0.1M spray at V5 stage, Pleasant Plains, Illinois, F=3.33, p=0.046) came to 24%; in assay [2] (double pass of 0.1M spray at V3 stage, Mt. Pulaski, Illinois, F=2.74, p=0.084), 38.4%; in assay [3] (double pass of 0.1M spray at V4-V6 stage, Lowell, Indiana, F=5.63, p=0.005), 22.6%. Further, the “soybean seed production (seeds/plant on average)” value is 199.0±14.14 seeds/plant in assay [1] (double pass of 0.1M spray at V5 stage, Pleasant Plains, Illinois, untreated controls 160.47±5.33); 220.6±21.96 seeds/plant in assay [2] (double pass of 0.1M spray at V3 stage, Mt. Pulaski, Illinois, untreated controls 147.88±13.59); 97.85±4.43 seeds/plant in assay [3] (double pass of 0.1M spray at V4-V6 stage, Lowell, Indiana, untreated controls 79.81±3.09).

The values are drawn from US12599128B2, “Composition and method for improving agronomic traits of a plant” (THE BOARD OF TRUSTEES OF THE UNIVERSITY OF ILLINOIS, priority 2024, dated 2026).
